Test results reported in US20200131196A1 (Mount Tam Therapeutics, Inc., priority 2017, published 2020).
Read-outs that look alike come from different tables or passages of the source.

How the values were obtained:
SNU-5 = assay: OncoPanel cell proliferation assay, SNU-5; type: cell-based, human
Procedure: (§1) Cells were seeded into 384-well plates and incubated in a humidified atmosphere of 5% CO2 at 37° C. Compounds were added the day following cell seeding. At the same time, a time zero untreated cell plate was generated. After a 3-day incubation period, cells were fixed and stained to allow fluorescence imaging of nuclei. Compounds (1 mM stock solutions) were serially diluted in half-log steps from the highest test concentration ([…]), and assayed over 10 concentrations with a maximum assay concentration of 0.1% DMSO. Automated fluorescence microscopy was carried out using a Molecular Devices ImageXpress Micro XL high-content imager, and images were collected with a 4× objective. 16-bit TIFF images were acquired and analyzed with MetaXpress 5.1.0.41 software.
(§2) Cell proliferation was measured by the fluorescence intensity of an incorporated nuclear dye. The output is referred to as the relative cell count, where the measured nuclear intensity is transformed to percent of control (POC) using the following formula: […]
(§3) Cellular response parameters were calculated using nonlinear regression to a sigmoidal single-site dose response model:
(§4) GI50 is the concentration needed to reduce the observed growth by half (midway between the curve maximum and the time zero value). […] In rare instances, values <0 or >10 may be observed. […] Curve-fitting, calculations, and report generation was performed using a custom data reduction engine and MathIQ based software (AIM).

OVCAR3 = assay: OncoPanel cell proliferation assay, OVCAR3
Procedure: (§6) Cells were seeded into 384-well plates and incubated in a humidified atmosphere of 5% CO2 at 37° C. Compounds were added the day following cell seeding. At the same time, a time zero untreated cell plate was generated. After a 3-day incubation period, cells were fixed and stained to allow fluorescence imaging of nuclei. Compounds (1 mM stock solutions) were serially diluted in half-log steps from the highest test concentration (1 micromol), and assayed over 10 concentrations with a maximum assay concentration of 0.1% DMSO. Automated fluorescence microscopy was carried out using a Molecular Devices ImageXpress Micro XL high-content imager, and images were collected with a 4× objective. 16-bit TIFF images were acquired and analyzed with MetaXpress 5.1.0.41 software.

Hs 852.T = assay: OncoPanel cell proliferation assay, Hs 852.T; type: cell-based, human
Procedure: as §1, with “Cells were grown in RPMI 1640, 10% FBS, 2 mM L-alanyl-L-glutamine, 1 mM Na pyruvate, or a special medium. Cells” for “Cells”
as §2, §3
(§5) EC50 is the test compound concentration at the curve inflection point or half the effective response (parameter C of the fitted curve solution). GI50 is the concentration needed to reduce the observed growth by half (midway between the curve maximum and the time zero value). “Cell Count Activity Area” is an estimate of the integrated area above the curve (Barretina, et al. The Cancer Cell Line Encyclopedia enables predictive modelling of anticancer drug sensitivity. Nature 483: 603-607). […] In rare instances, values <0 or >10 may be observed. […] Curve-fitting, calculations, and report generation was performed using a custom data reduction engine and MathIQ based software (AIM).

SW684 = assay: OncoPanel cell proliferation assay, SW684; type: cell-based, human
Procedure: as §1, §2, §3, §4

PC-3 = assay: OncoPanel cell proliferation assay, PC-3
Procedure: as §6

U-87 MG = assay: OncoPanel cell proliferation assay, U-87 MG; type: cell-based, human
Procedure: as §1, with “Cells were grown in RPMI 1640, 10% FBS, 2 mM L-alanyl-L-glutamine, 1 mM Na pyruvate, or a special medium. Cells” for “Cells”
as §2, §3, §5

[1] = Homo sapiens, read-out: Cell Count EC50
[2] = Homo sapiens, read-out: Cell Count GI50
[3] = Homo sapiens, read-out: Cell Count IC50

## CO[C@H]1C[C@@H]2CC[C@@H](C)[C@@](O)(O2)C(=O)C(=O)N2CCCC[C@H]2C(=O)O[C@H]([C@H](C)C[C@H]2C[C@H]3C[C@@H]2C[C@@H]3O)CC(=O)[C@H](C)/C=C(\C)[C@@H](O)[C@@H](OC)C(=O)[C@H](C)C[C@H](C)/C=C/C=C/C=C/1C [Formula II, C37-[(1R,2S,4R,5S)-5-hyhroxybicyclo[2.2.1]heptane] rapamycin]
SNU-5
  Cell Count Activity Area: 1.85
SNU-5; 1.00E+00 microM
  Relative cell count (%) Mean: 67.1%
SNU-5; 1.00E-01 microM
  Relative cell count (%) Mean: 71.9%
SNU-5; 1.00E-02 microM
  Relative cell count (%) Mean: 82.9%
SNU-5; 1.00E-03 microM
  Relative cell count (%) Mean: 95.6%
SNU-5; 1.01E-04 microM
  Relative cell count (%) Mean: 101.2%
SNU-5; 3.16E-01 microM
  Relative cell count (%) Mean: 70.4%
SNU-5; 3.17E-02 microM
  Relative cell count (%) Mean: 76.3%
SNU-5; 3.17E-03 microM
  Relative cell count (%) Mean: 84.9%
SNU-5; 3.18E-04 microM
  Relative cell count (%) Mean: 95.6%
SNU-5; 3.18E-05 microM
  Relative cell count (%) Mean: 101.0%
SNU-5; [1]
  EC50: 5.57 nM
SNU-5; [2]
  GI50: 168 nM
SNU-5; [3]
  IC50: > 1000 nM
OVCAR3; Homo sapiens
  EC50: 43 nM
OVCAR3; Homo sapiens, OVCAR-3, read-out: Cell Count EC50
  EC50: 42.6 nM
OVCAR3; Homo sapiens, OVCAR-3, read-out: Cell Count GI50
  GI50: 301 nM
OVCAR3; Homo sapiens, OVCAR-3, read-out: Cell Count IC50
  IC50: > 1000 nM
OVCAR3; OVCAR3
  Cell Count Activity Area: 1.09
OVCAR3; OVCAR3, 1.00E+00 microM
  Relative cell count (%) Mean: 70.8%
OVCAR3; OVCAR3, 1.00E-01 microM
  Relative cell count (%) Mean: 79.0%
OVCAR3; OVCAR3, 1.00E-02 microM
  Relative cell count (%) Mean: 104.2%
OVCAR3; OVCAR3, 1.00E-03 microM
  Relative cell count (%) Mean: 101.9%
OVCAR3; OVCAR3, 1.01E-04 microM
  Relative cell count (%) Mean: 116.6%
OVCAR3; OVCAR3, 3.16E-01 microM
  Relative cell count (%) Mean: 69.1%
OVCAR3; OVCAR3, 3.17E-02 microM
  Relative cell count (%) Mean: 88.4%
OVCAR3; OVCAR3, 3.17E-03 microM
  Relative cell count (%) Mean: 98.5%
OVCAR3; OVCAR3, 3.18E-04 microM
  Relative cell count (%) Mean: 100.4%
OVCAR3; OVCAR3, 3.18E-05 microM
  Relative cell count (%) Mean: 99.9%
Hs 852.T
  Cell Count Activity Area: 0.95
Hs 852.T; 1.00E+00 microM
  Relative cell count (%) Mean: 72.0%
Hs 852.T; 1.00E-01 microM
  Relative cell count (%) Mean: 80.1%
Hs 852.T; 1.00E-02 microM
  Relative cell count (%) Mean: 91.2%
Hs 852.T; 1.00E-03 microM
  Relative cell count (%) Mean: 92.9%
Hs 852.T; 1.01E-04 microM
  Relative cell count (%) Mean: 98.7%
Hs 852.T; 3.16E-01 microM
  Relative cell count (%) Mean: 73.2%
Hs 852.T; 3.17E-02 microM
  Relative cell count (%) Mean: 82.3%
Hs 852.T; 3.17E-03 microM
  Relative cell count (%) Mean: 90.6%
Hs 852.T; 3.18E-04 microM
  Relative cell count (%) Mean: 92.8%
Hs 852.T; 3.18E-05 microM
  Relative cell count (%) Mean: 95.0%
Hs 852.T; [1]
  EC50: > 1000 nM
Hs 852.T; [2]
  GI50: > 1000 nM
Hs 852.T; [3]
  IC50: > 1000 nM
SW684
  Cell Count Activity Area: 2.97
SW684; 1.00E+00 microM
  Relative cell count (%) Mean: 49.0%
SW684; 1.00E-01 microM
  Relative cell count (%) Mean: 55.6%
SW684; 1.00E-02 microM
  Relative cell count (%) Mean: 71.4%
SW684; 1.00E-03 microM
  Relative cell count (%) Mean: 85.1%
SW684; 1.01E-04 microM
  Relative cell count (%) Mean: 94.1%
SW684; 3.16E-01 microM
  Relative cell count (%) Mean: 52.4%
SW684; 3.17E-02 microM
  Relative cell count (%) Mean: 63.3%
SW684; 3.17E-03 microM
  Relative cell count (%) Mean: 71.8%
SW684; 3.18E-04 microM
  Relative cell count (%) Mean: 86.4%
SW684; 3.18E-05 microM
  Relative cell count (%) Mean: 99.5%
SW684; [1]
  EC50: 4.57 nM
SW684; [2]
  GI50: 2.19 nM
SW684; [3]
  IC50: 370 nM
PC-3; Homo sapiens, PC-3, read-out: Cell Count EC50
  EC50: 0.637 nM
PC-3; Homo sapiens, PC-3, read-out: Cell Count GI50
  GI50: 3.99 nM
PC-3; Homo sapiens, PC-3, read-out: Cell Count IC50
  IC50: 18.4 nM
PC-3; PC-3
  Cell Count Activity Area: 3.80
PC-3; PC-3, 1.00E+00 microM
  Relative cell count (%) Mean: 42.2%
PC-3; PC-3, 1.00E-01 microM
  Relative cell count (%) Mean: 50.3%
PC-3; PC-3, 1.00E-02 microM
  Relative cell count (%) Mean: 59.2%
PC-3; PC-3, 1.00E-03 microM
  Relative cell count (%) Mean: 70.9%
PC-3; PC-3, 1.01E-04 microM
  Relative cell count (%) Mean: 98.3%
PC-3; PC-3, 3.16E-01 microM
  Relative cell count (%) Mean: 47.6%
PC-3; PC-3, 3.17E-02 microM
  Relative cell count (%) Mean: 50.8%
PC-3; PC-3, 3.17E-03 microM
  Relative cell count (%) Mean: 61.5%
PC-3; PC-3, 3.18E-04 microM
  Relative cell count (%) Mean: 73.9%
PC-3; PC-3, 3.18E-05 microM
  Relative cell count (%) Mean: 96.9%
U-87 MG
  Cell Count Activity Area: 3.76
U-87 MG; 1.00E+00 microM
  Relative cell count (%) Mean: 48.9%
U-87 MG; 1.00E-01 microM
  Relative cell count (%) Mean: 52.1%
U-87 MG; 1.00E-02 microM
  Relative cell count (%) Mean: 70.4%
U-87 MG; 1.00E-03 microM
  Relative cell count (%) Mean: 78.8%
U-87 MG; 1.01E-04 microM
  Relative cell count (%) Mean: 101.1%
U-87 MG; 3.16E-01 microM
  Relative cell count (%) Mean: 50.7%
U-87 MG; 3.17E-02 microM
  Relative cell count (%) Mean: 60.4%
U-87 MG; 3.17E-03 microM
  Relative cell count (%) Mean: 71.4%
U-87 MG; 3.18E-04 microM
  Relative cell count (%) Mean: 85.3%
U-87 MG; 3.18E-05 microM
  Relative cell count (%) Mean: 108.2%
U-87 MG; [1]
  EC50: 0.996 nM
U-87 MG; [2]
  GI50: 2.17 nM
U-87 MG; [3]
  IC50: 34.1 nM
